# Experimental data reported in the Kinase Knowledgebase extract (Sharma et al. 2016).
# Target: ROCK2 (human) (UniProt O75116)
# Experiment: Inhibition of ROCK2 Kinase Activity
# Conditions: concentration not given here
# Sequence of ROCK2 (human) (O75116 whole entry, looked up): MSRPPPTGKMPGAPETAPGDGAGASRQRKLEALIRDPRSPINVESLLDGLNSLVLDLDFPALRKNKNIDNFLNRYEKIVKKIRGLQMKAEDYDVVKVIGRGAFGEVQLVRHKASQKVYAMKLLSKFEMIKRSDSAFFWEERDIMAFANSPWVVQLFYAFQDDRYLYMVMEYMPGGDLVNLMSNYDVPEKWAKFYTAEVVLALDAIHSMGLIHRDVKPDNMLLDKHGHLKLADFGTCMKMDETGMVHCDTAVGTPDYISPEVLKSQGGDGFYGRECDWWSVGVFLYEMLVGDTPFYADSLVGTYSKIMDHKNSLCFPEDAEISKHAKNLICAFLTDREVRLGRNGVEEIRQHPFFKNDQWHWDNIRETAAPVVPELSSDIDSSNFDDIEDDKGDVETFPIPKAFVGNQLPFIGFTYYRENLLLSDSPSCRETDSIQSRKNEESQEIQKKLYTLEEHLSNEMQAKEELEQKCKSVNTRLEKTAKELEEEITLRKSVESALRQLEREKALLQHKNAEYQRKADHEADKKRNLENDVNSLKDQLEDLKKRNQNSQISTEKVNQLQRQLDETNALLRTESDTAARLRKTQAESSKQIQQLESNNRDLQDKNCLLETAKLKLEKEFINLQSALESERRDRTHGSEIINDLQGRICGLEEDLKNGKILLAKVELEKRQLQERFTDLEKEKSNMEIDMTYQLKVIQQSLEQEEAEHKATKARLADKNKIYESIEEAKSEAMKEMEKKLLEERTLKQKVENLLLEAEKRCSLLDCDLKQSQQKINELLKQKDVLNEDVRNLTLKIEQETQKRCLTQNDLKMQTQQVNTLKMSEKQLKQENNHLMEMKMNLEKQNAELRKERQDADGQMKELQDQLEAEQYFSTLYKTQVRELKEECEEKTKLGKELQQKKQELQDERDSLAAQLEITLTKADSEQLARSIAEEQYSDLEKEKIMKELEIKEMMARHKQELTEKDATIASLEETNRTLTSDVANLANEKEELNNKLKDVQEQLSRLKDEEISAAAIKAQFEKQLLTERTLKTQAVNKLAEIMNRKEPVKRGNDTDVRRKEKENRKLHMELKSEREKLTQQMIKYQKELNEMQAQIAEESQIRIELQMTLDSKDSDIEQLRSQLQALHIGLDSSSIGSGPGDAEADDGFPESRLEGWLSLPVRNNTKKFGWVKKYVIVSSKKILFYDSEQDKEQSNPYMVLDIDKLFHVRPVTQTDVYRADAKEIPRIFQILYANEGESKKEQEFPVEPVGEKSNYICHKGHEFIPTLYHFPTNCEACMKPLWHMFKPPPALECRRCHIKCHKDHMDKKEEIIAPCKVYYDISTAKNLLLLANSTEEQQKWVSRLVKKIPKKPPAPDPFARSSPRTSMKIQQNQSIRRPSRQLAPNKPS
row,inhibition,Structure (SMILES)
1,0%,Cn1c(-c2ccc([S+](C)[O-])cc2)nc2c(Sc3ccc(F)cc3)ncnc21 (centres undefined)
2,0%,Fc1ccc(Cn2cnc3c(Cl)ncnc32)cc1
3,0%,Cn1c(C#CCCO)nc2c(Sc3ccccc3)ncnc21
4,0%,Cn1cnc2c(/C=C/c3ccccc3)ncnc21
5,0%,Cn1c(Br)nc2c(Sc3ccccc3)ncnc21
6,0%,Cn1c(-c2ccccc2)nc2c(-c3ccc(F)cc3)ncnc21
7,0%,CSc1ccc(-c2nc3c(Sc4ccccc4)ncnc3n2C)cc1
8,0%,c1ccc(-n2cnc3ncncc32)cc1
9,0%,Cn1cnc2c(Nc3ccccc3)ncnc21
10,0%,Fc1ccc(Cn2cnc3c(Sc4ccc(F)cc4)ncnc32)cc1
11,0%,Cn1c(-c2ccc(S(C)(=O)=O)cc2)nc2c(Sc3ccc(F)cc3)ncnc21
12,22%,C(=C\c1ncnc2[nH]cnc12)/c1ccccc1
13,0%,Nc1ncnc2c1ncn2Cc1ccc(F)cc1
14,0%,CSc1ccc(-c2nc3c(Sc4ccc(F)cc4)ncnc3n2C)cc1
